Data reported in publication PMC6544596 (Drugs in R&D, 2019).
Where two headings read alike, the source gives them in different places.

How the values were obtained:
Abl = conditions: read-out: IC50 Abl; cited from earlier work
PDGFR-β = conditions: cited from earlier work; for IC50: read-out: IC50 PDGFR-β
[1] = Pharmacokinetics of a single intraperitoneal dose in mice; assay type: in vivo, C57BL/6J mice; conditions: for CNS penetrance (in words): Fig. 8 summary of kinetics profiling in animal models; for time after administration at which agents are completely washed out of the brain: IP administration; for Tmax: brain and plasma; for Kp: brain/plasma
SRC = conditions: cited from earlier work; for IC50: read-out: IC50 SRC
A53T mice = assay: α-Synuclein, HVA and dopamine levels in transgenic A53T mice; assay type: in vivo, mouse
DDR1/2 = conditions: read-out: IC50 DDR1/2; cited from earlier work
APP mice = assay: Aβ and tau levels in transgenic APP mice; assay type: in vivo, mouse; conditions: 3 consecutive weeks; for Insoluble human Aβ vs DMSO (in words): p < 0.01, 0.001
PDGFR-α = conditions: cited from earlier work
c-Kit = conditions: read-out: IC50 c-Kit; cited from earlier work
[2] = tested on: rat B35 neuroblastoma transfected with Aβ42; assay: Aβ42 ELISA in Aβ42-transfected B35 neuroblastoma cells; assay type: cell-based; conditions: 10 µM, 24 h
DDR2 = conditions: read-out: IC50 DDR2; cited from earlier work
[3] = male, C57BL/6J, mouse, ip, 5 mg/kg
[4] = male, C57BL/6J, mouse, plasma, ip, 5 mg/kg
[5] = single IP dose 1.25 mg/kg, mice
[6] = male, C57BL/6J, mouse, ip, 10 mg/kg
[7] = male, C57BL/6J, mouse, plasma, ip, 10 mg/kg
[8] = 4- to 7-month-old APP mice, 10 mg/kg IP
[9] = 12-month-old A53T mice, 5 mg/kg IP once daily, 3 consecutive weeks

In the case of Cc1ccc(NC(=O)c2ccc(CN3CC[C@H](N(C)C)C3)c(C(F)(F)F)c2)cc1Nc1nccc(-c2cncnc2)n1 [Bafetinib], the IC50 (Abl) is listed as 5.8 nM, the “affinity to PDGFRβ” value (PDGFR-β) is listed as “no affinity” and the “CNS penetrance (in words)” value [1] is listed as “high”. The “time after administration at which agents are completely washed out of the brain” value (“time after administration” below) ([1]; mice) was 4 to 5 h, the Tmax [1, 3] was 1 h and the Kp [1, 3] was 0.12. The AUC [1, 4] was 69.5 µM·h, the Cmax [1, 4] was 19.4 µM and the “AUC Brain” value ([1]; single IP dose 5 mg/kg, mice) was 4.193. For the same compound, the “C max Brain” value ([1]; single IP dose 5 mg/kg, mice) was 2.362 µM, the “inhibition of Src” value (SRC) was “do not appear to inhibit Src” and the IC50 (SRC) was 1700 nM. For the same compound, the “levels of α-syn measured via ELISA (in words)” value (A53T mice; A53T mice, 10, 5 or 2.5 mg/kg IP daily) was “did not reduce”, the “ELISA homovanillic acid and dopamine measurements (in words)” value (A53T mice; A53T mice, bafetinib treatment IP daily) was “remain unchanged” and the IC50 (DDR1/2) was 220 nM. For the same compound, the “reduction of the level of soluble Aβ40 compared to DMSO” value (APP mice; APP mice, 5 mg/kg IP) was 9%, the “reduction in the insoluble Aβ42 compared with DMSO” value (APP mice; APP mice, 5 mg/kg IP, not significant) was 17% and the “total tau levels compared with DMSO-treated APP mice (in words)” value (APP mice; APP mice, bafetinib 5 mg/kg or LCB 2.5 mg/kg IP) was “significant reduction”. The IC50 (PDGFR-α; read-out: IC50 to PDGFRα) was 56 nM.

For COc1cc(Nc2c(C#N)cnc3cc(OCCCN4CCN(C)CC4)c(OC)cc23)c(Cl)cc1Cl [Bosutinib], the IC50 (Abl) is listed as […], the “CNS penetrance (in words)” value [1] is listed as “medium-to-high” and the “time after administration” value ([1]; mice) is listed as […]. It also gave a Tmax [1, 3] of 1 h, a Kp [1, 3] of 0.05 and an AUC [1, 4] of 51.7 µM·h. For the same compound, the Cmax [1, 4] was 19.4 µM, the “AUC Brain” value ([1]; single IP dose 5 mg/kg, mice) was 1.996 and the “C max Brain” value ([1]; single IP dose 5 mg/kg, mice) was 0.918 µM. For the same compound, the IC50 (SRC) was […] and the IC50 (DDR1/2) was > 4900 nM.

In the case of Oc1cccc(Nc2ccnc3cc(-c4cccc(CN5CCOCC5)c4)sc23)c1 [LCB-03-0110], the IC50 (Abl) is listed as > 1000 nM, the IC50 (PDGFR-β) is listed as 409 nM and the Cmax ([1]; read-out: C max Plasma, single IP dose 1.25 mg/kg, mice) is listed as 2.35 µM. The Cmax ([1]; read-out: C max Plasma, single IP dose 2.5 mg/kg, mice) was 3.65 µM, the “AUC Brain” value [1, 5] was 0.2302 and the “AUC Plasma” value [1, 5] was 2.805. For the same compound, the “C max Brain” value [1, 5] was 0.245 µM, the “Ratio (%) brain to plasma” value [1, 5] was 10% and the “T max Time” value [1, 5] was 1 h. The “AUC Brain” value ([1]; single IP dose 2.5 mg/kg, mice) was 0.3152, the “AUC Plasma” value ([1]; single IP dose 2.5 mg/kg, mice) was 6.482 and the “C max Brain” value ([1]; single IP dose 2.5 mg/kg, mice) was 0.445 µM. For the same compound, the “Ratio (%) brain to plasma” value ([1]; single IP dose 2.5 mg/kg, mice) was 12%, the “T max Time” value ([1]; single IP dose 2.5 mg/kg, mice) was 1 h and the IC50 (SRC) was 1.3 nM. For the same compound, the IC50 (c-Kit) was 591 nM, the IC50 (DDR1/2) was 6 nM and the IC50 (PDGFR-α; read-out: IC50 PDGFR-α) was 69 nM.

For Cc1cn(-c2cc(NC(=O)c3ccc(C)c(Nc4nccc(-c5cccnc5)n4)c3)cc(C(F)(F)F)c2)cn1 [Nilotinib], the IC50 (Abl) is listed as […], the IC50 (PDGFR-β) is listed as < 60 nM and the Tmax [1, 6] is listed as 1 h. For the same compound, the AUC [1, 7] was 174 µM·h, the Cmax [1, 7] was 33.7 µM and the “inhibition of Src” value (SRC) was “do not appear to inhibit Src”. For the same compound, the “Aβ42 (ELISA) in Aβ42-transfected B35 cells (in words)” value [2] was “reduce Aβ42”, the IC50 (DDR1/2) was < 6 nM and the “effect on total tau levels (in words)” value (APP mice; [8]) was “no effect”. For the same compound, the “reduction of phospho-tau (ser396) compared with DMSO” value (APP mice; [8]) was 28%, the “Insoluble human Aβ vs DMSO (in words)” value (APP mice; [8]) was “significantly decreased” and the IC50 (PDGFR-α; read-out: IC50 PDGFR-α) was < 71 nM. For the same compound, the IC50 (DDR2) was […].

In the case of Cc1cn(-c2cc(NC(=O)c3ccc(C)c(Nc4nccc(-c5cnccn5)n4)c3)cc(C(F)(F)F)c2)cn1 [Radotinib], the IC50 (Abl) is given as 34 nM, the IC50 (PDGFR-β) is given as 130 nM and the “CNS penetrance (in words)” value [1] is given as “medium-to-high”. The “time after administration” value ([1]; mice) was 4 to 5 h, the Tmax [1, 6] was 1 h and the Kp [1, 6] was 0.05. The AUC [1, 7] was 83.3 µM·h, the Cmax [1, 7] was 24.4 µM and the “AUC Brain” value ([1]; single IP dose 10 mg/kg, mice) was 1.839. The “C max Brain” value ([1]; single IP dose 10 mg/kg, mice) was 1.004 µM, the “inhibition of Src” value (SRC) was “do not appear to inhibit Src” and the IC50 (SRC) was > 2000 nM. For the same compound, the “α-syn levels, ELISA, compared to DMSO” value (A53T mice; [9]) was “no difference”, the “α-syn levels, Western blot, compared to DMSO” value (A53T mice; [9]) was “no change” and the IC50 (c-Kit) was > 1300 nM. For the same compound, the IC50 (DDR1/2) was < 180 nM, the “effect on phosphorylated tau levels (in words)” value (APP mice; [8]) was “no effect” and the “effect on total tau levels (in words)” value (APP mice; [8]) was “no effect”. The “Insoluble human Aβ vs DMSO (in words)” value (APP mice; [8]) was “significantly decreased” and the IC50 (PDGFR-α; read-out: IC50 PDGFR-α) was 75.5 nM.
